Measured values from US20230285339A1, “THERAPIES FOR TREATING AML AND USES OF RARA AGONISTS, HYPOMETHYLATING AGENTS, AND BCL-2 INHIBITORS” (Syros Pharmaceuticals, Inc., priority 2020, published 2023).

System: AML samples
Assay: Beat AML ex vivo venetoclax sensitivity, proliferation assay on AML patient samples (AUC and IC50)
Type: cell-based, human
Experimental: Venetoclax sensitivity in BeatAML: The BeatAML dataset a/so included ex vivo sensitivity analysis for a panel of 121 inhibitors, including venetoclax, in a proliferation assay on 248 of the AML samples measured by area under the curve (AUC) and IC50. Only some of the patient samples were queried for each inhibitor. Of the samples with at least 40% blasts, 90 were tested for venetoclax ex vivo sensitivity. To define the best possible association of gene expression with venetoclax AUC, we performed a logistic regression model with lasso regularization to predict venetoclax AUC from the expression of all expressed genes using the expression matrix quantile normalized with the TCGA dataset. The R package glmnet was used as described above in the section “Development of monocytic expression signature in TCGA.”
To define samples sensitive to venetoclax, we first identified an IC50 that could separate sensitive samples from insensitive samples, as follows. We consulted two references (Bogenberger et al., Oncotarget 8:107206-107222, 2017) and Ramsey et al. Cancer Discovery 8:1566-1581, 2018) that defined sensitive AML cells in the range of 20-60 nM and resistant AML cells around 1 μM, and we choose 100 nM as a threshold that splits this range. We then mapped 100 nM IC50 values from the BeatAML venetoclax ex vivo assay to AUC, which is a more robust quantitative measure of sensitivity, by selecting the AUC below which all samples have an IC50<100 nM, which led to the AUC threshold of 130. At this threshold, we found 35 AML samples sensitive to venetoclax and 55 AML samples resistant to venetoclax.
In the methods, RARA gene expression in non-APL AML was evaluated in the TCGA and Beat AML RNA-seq datasets. AUC of cell viability curves were used to evaluate ex vivo sensitivity to compounds, including venetoclax, in the Beat AML dataset. A monocytic MES was developed using the expression of monocytic and primitive RNA markers in the TCGA dataset to analyze the monocytic phenotype. The MES used a logistic regression model with lasso regularization to distinguish FAB M4/5 (monocytic) from FAB M0/1/2 (primitive) using 10-fold cross-validation with 85% sensitivity and 80% specificity. The MES was then applied to the RNA-seq datasets from Beat AML and AML blasts from ND unfit AML patients in the ongoing tamibarotene-plus-azacitidine trial (NCT02807558), in which RARA-positive patients were determined by an RT-qPCR-based biomarker clinical trial assay (CTA). The MES, RARA expression, and venetoclax resistance-associated features were compared using Spearman's rho correlation; the association of the MES with the RARA biomarker and with IWG clinical responses in tamibarotene plus Aza treated patients was evaluated.

CC1(C)CCC(CN2CCN(c3ccc(C(=O)NS(=O)(=O)c4ccc(NCC5CCOCC5)c([N+](=O)[O-])c4)c(Oc4cnc5[nH]ccc5c4)c3)CC2)=C(c2ccc(Cl)cc2)C1 [venetoclax]
AML samples resistant (All 90 samples, AUC threshold 130): 55 | Percent sensitive (All patients (90 AML samples), AUC threshold 130): 39% | N sensitive (All patients (90 AML samples, at least 40% blasts), sensitive = AUC below threshold of 130 (IC50<100 nM)): 35 | Percent sensitive (Monocytic AML patients (MES>0.5), N total 44): 11% | N sensitive (Primitive AML patients (MES<0.5), N total 46): 30 | Percent sensitive (Primitive AML patients, N total 46): 65% | Percent sensitive (RARA-high patients, N total 21): 0% | N sensitive (RARA-low patients, N total 69): 35 | Percent sensitive (RARA-low patients, N total 69): 51%
